Data set [1] relates to normotensive dogs. The note with it: 0.05%, once daily for 5 days. On the procedure: (§1) U.S. Pat. No. 7,091,231 describes the methods used for these in vivo tests.
(§2) Isopropyl 5-(2-(3′,4-difluoro-[1,1′-biphenyl]-3-ylcarboxamido)ethyl)thiophene-2-carboxylate was tested in normotensive dogs at 0.05%, dosing once daily for 5 days. […] This compound was also tested in laser-induced hypertensive monkeys, using one single day dose.
(§3) 2-Hydroxyethyl 5-(2-(3′,4-difluoro-[1,1′-biphenyl]-3-ylcarboxamido)ethyl)thiophene-2-carboxylate was tested in normotensive dogs at 0.05%, dosing once daily for 5 days. […] This compound was also tested in laser-induced hypertensive monkeys, using one single day dose.

In data set [2] the test system is laser-induced hypertensive monkeys. The note with it: 0.05%, one single day dose, maximum at 6 h. On the procedure: as §1, §2, §3
Data set [3] deals with T1, EP2 (Homo sapiens, UniProt P43116). As to the kind of experiment: EP2 cAMP assay. The data set is classed as cell-based. The procedure:
(§4) Data from running binding and activity studies on the compounds of the invention were carried out as described in U.S. Pat. No. 7,427,685, the contents of which are incorporated herein by reference.
Background: cAMP levels reflect the balance of adenylyl cyclase and phosphodiesterase activity.

Data set [4] has as its target T2, EP4 (Homo sapiens, UniProt P35408). Put plainly: EP4 flipr functional assay. The class given is cell-based. On the procedure:
as §4

Data set [5] addresses T1, EP2. As to the kind of experiment: EP2 binding. On the procedure: as §4
In data set [6] the target is T2, EP4. As to the kind of experiment: EP4 binding. On the procedure: as §4
The target in data set [7] is T1, EP2. As to the kind of experiment: EP2 flipr functional assay. The class given is cell-based. The procedure:
as §4

In data set [8] the target is T3, hEP3A (Homo sapiens, UniProt P43115).
T3 sequence (P43115 1-390): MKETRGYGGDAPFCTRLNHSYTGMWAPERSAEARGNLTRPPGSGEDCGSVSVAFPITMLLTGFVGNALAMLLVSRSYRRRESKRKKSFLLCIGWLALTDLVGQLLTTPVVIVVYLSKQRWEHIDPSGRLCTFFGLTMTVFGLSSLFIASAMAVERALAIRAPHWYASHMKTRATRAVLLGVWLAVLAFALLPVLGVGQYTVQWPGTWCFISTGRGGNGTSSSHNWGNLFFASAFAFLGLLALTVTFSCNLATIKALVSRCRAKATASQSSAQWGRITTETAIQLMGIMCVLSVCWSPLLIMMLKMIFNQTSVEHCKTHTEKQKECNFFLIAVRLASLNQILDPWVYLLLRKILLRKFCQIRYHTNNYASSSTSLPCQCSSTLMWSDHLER
Put plainly: Other receptors functional assay, hEP3A. The data set is classed as cell-based. On the procedure:
as §4

pEC50, pKi: −log10 of the molar value. Where two headings read alike, the source gives them in different places.

T1 sequence (P43116 whole entry): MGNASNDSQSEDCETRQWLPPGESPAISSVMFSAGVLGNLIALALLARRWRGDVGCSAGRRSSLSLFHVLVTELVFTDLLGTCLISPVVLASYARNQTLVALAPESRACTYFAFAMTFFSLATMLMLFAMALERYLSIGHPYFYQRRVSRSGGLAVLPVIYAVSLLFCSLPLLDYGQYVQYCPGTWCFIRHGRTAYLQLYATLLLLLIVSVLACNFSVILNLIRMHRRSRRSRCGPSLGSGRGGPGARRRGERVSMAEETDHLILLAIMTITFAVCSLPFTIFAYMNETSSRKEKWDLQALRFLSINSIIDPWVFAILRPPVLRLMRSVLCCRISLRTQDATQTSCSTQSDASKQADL
T2 sequence (P35408 whole entry): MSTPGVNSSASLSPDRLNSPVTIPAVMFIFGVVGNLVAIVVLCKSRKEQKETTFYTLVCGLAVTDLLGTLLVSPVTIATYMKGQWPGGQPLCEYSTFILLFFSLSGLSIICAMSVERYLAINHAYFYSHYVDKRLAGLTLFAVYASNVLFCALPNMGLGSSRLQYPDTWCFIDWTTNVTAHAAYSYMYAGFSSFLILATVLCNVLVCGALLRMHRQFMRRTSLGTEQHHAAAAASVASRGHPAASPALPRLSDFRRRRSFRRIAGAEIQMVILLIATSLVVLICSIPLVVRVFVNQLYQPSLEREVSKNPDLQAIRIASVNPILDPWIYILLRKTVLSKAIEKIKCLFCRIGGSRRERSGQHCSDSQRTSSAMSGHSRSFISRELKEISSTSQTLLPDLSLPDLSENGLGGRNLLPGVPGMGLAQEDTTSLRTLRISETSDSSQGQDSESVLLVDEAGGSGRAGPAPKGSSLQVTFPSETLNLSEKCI

Regarding `O=C(OCCO)c1ccc(CCNC(=O)c2cc(-c3cccc(F)c3)ccc2F)s1` [2-Hydroxyethyl 5-(2-(3′,4-difluoro-[1,1′-biphenyl]-3-ylcarboxamido)ethyl)thiophene-2-carboxylate], in data set [1] (maximum at 52 h), the “maximum intraocular pressure (IOP) decrease from baseline” value was 6.6 mmHg and the “maximum intraocular pressure (IOP) decrease from baseline (percent)” value is reported as 50%. In data set [1] (maximum at 54 h), the “maximum ocular surface hyperemia (OSH) score” value amounted to 1.6. In data set [2], the “maximum IOP decrease from baseline” value was determined as 13.1 mmHg and the “maximum IOP decrease from baseline (percent)” value was 31%.
The term pEC50 denotes −log10 of the EC50, conventionally taken in molar units. By pKi is commonly meant the Ki on a negative log10 scale, so that one unit is a factor of ten. One may read the EC50 as the concentration giving half of the maximal effect. Low values mean greater potency, high ones weaker potency. As to `O=C(O)c1ccc(CCNC(=O)c2cc(-c3cccc(F)c3)ccc2F)s1` [Compound 1, 5-(2-(3′,4-Difluoro-[1,1′-biphenyl]-3-ylcarboxamido)ethyl)thiophene-2-carboxylic acid], the pEC50 in data set [3] was 8.70; in data set [4], 5.29; in data set [7], 7.31. The pKi was 7.20 in data set [5] and 6.19 in data set [6]. In data set [8], this compound returned an EC50 of 8900 nM.
For `O=C(O)c1ccc(CNC(=O)c2cc(-c3cccc(F)c3)ccc2F)s1` [Compound 2, 5-((3′,4-Difluoro-[1,1′-biphenyl]-3-ylcarboxamido)methyl)thiophene-2-carboxylic acid], the pEC50 in data set [3], in data set [4] and in data set [7] was less than 5.00 in each case. The negative-log Ki (pKi) in data set [5] was 6.20; in data set [6], 6.07.
In the case of `O=C(O)c1ccc(CCCNC(=O)c2cc(-c3cccc(F)c3)ccc2F)s1` [Compound 3, 5-(3-(3′,4-Difluoro-[1,1′-biphenyl]-3-ylcarboxamido)propyl)thiophene-2-carboxylic acid], the values for the pEC50 in data set [3], in data set [4] and in data set [7] were 8.30, less than 5.00 and 7.51, respectively. Besides, the pKi in data set [5] was 6.75; in data set [6], 5.83. This compound also gave a concentration giving a half-maximal response (EC50) in data set [8] of 3290 nM.
Consider `O=C(O)c1ccc(CCCCNC(=O)c2cc(-c3cccc(F)c3)ccc2F)s1` [Compound 4, 5-(4-(3′,4-Difluoro-[1,1′-biphenyl]-3-ylcarboxamido)butyl)thiophene-2-carboxylic acid], for which the pEC50 in data set [3], in data set [4] and in data set [7] was less than 5.00 in each case. Besides, the figures for the pKi in data set [5] and in data set [6] were 5.16 and 5.06, respectively.
With `O=C(NCCc1ccc(C(=O)O)s1)c1cccc(-c2cccc(F)c2)c1` [Compound 5, 5-(2-(3′-Fluoro-[1,1′-biphenyl]-3-ylcarboxamido)ethyl)thiophene-2-carboxylic acid], the pEC50 in data set [3] was 8.10; in data set [4], 5.22; in data set [7] it was 7.59. The negative logarithm of the Ki (pKi) is 6.82 in data set [5] and 6.13 in data set [6]. The compound further came in with a concentration for a half-maximal effect (EC50) in data set [8] of more than 10000 nM.
Consider `O=C(NCCc1ccc(C(=O)O)s1)c1cc(F)cc(-c2cccc(F)c2)c1` [Compound 6, 5-(2-(3′,5-Difluoro-[1,1′-biphenyl]-3-ylcarboxamido)ethyl)thiophene-2-carboxylic acid], for which the pEC50 is 8.40 in data set [3], 5.35 in data set [4] and 7.96 in data set [7]. Further, the negative-log Ki (pKi) is 6.91 in data set [5] and 6.12 in data set [6]. In addition, a half-maximal response in data set [8] (EC50) required 4810 nM.
Take `O=C(NCCCc1ccc(C(=O)O)s1)c1cc(F)cc(-c2cccc(F)c2)c1` [Compound 7, 5-(3-(3′,5-Difluoro-[1,1′-biphenyl]-3-ylcarboxamido)propyl)thiophene-2-carboxylic acid]: the negative-log EC50 (pEC50) was 8.30 in data set [3], less than 5.00 in data set [4] and 7.43 in data set [7]. The pKi is 6.90 in data set [5] and 6.09 in data set [6]. In data set [8], this compound registered an EC50 of 1420 nM.
Regarding `CC(C)OC(=O)c1ccc(CCNC(=O)c2cc(-c3cccc(F)c3)ccc2F)s1` [Isopropyl 5-(2-(3′,4-difluoro-[1,1′-biphenyl]-3-ylcarboxamido)ethyl)thiophene-2-carboxylate], the “maximum ocular surface hyperemia (OSH) score” value in data set [1] (maximum at 28 h) is 0.8. For the same compound, in data set [1] (maximum at 78 h), the “maximum intraocular pressure (IOP) decrease from baseline” value was 5.2 mmHg and the “maximum intraocular pressure (IOP) decrease from baseline (percent)” value is given as 32%. In addition, in data set [2], the “maximum IOP decrease from baseline” value was 6.9 mmHg and the “maximum IOP decrease from baseline (percent)” value was 19%.

For the origin of these results see patent US9090584B2, “Therapeutic agents for treatment of ocular hypertension” (Allergan, Inc., priority 2010, dated 2015).
